Where a name gives a salt, the structure may show the parent alone.
What was measured:
cGMP-PDE = cGMP-PDE (Homo sapiens, UniProt O76074); test: Inhibitory effect on cGMP-PDE (PDE IC isolated from human platelets, 3H-cGMP substrate); type: biochemical; conditions: 0.2 μM 3H-cGMP, pH 8.0, 2.5% DMSO
TXA2 synthetase = molecular target: T1, TXA2 synthetase (Rattus norvegicus, UniProt P49430); test: Inhibitory effect on TXA2 synthetase (TXB2 by EIA in A23187-stimulated rat whole blood); type: cell-based, rat (Male Wistar rats); conditions: rat heparinized whole blood, Ca ionophore A23187, TXB2 by EIA, 37° C.
T1 construct: whole blood was collected from abdominal aorta; from tissue; host or cells: heparinized whole blood of male Wistar rats (mainly platelets)
T1 sequence (P49430 1-533): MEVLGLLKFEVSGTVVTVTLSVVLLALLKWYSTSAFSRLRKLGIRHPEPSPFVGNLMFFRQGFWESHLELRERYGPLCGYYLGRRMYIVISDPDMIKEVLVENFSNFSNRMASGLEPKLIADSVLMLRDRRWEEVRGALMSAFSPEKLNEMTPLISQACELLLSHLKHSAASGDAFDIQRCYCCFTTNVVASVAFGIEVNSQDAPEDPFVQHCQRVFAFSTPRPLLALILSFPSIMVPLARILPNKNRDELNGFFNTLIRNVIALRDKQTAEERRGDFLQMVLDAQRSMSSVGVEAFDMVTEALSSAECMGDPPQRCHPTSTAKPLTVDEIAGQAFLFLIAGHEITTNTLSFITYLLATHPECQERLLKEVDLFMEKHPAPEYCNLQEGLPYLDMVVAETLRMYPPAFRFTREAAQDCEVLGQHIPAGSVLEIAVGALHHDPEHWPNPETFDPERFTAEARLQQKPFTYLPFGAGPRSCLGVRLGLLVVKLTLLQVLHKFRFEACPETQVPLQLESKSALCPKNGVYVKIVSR
Experimental: (2) Inhibitory effect on TXA2 synthetase
Male Wistar rats were starved overnight. 500 μL of heparinized (10 U/mL) whole blood was collected from abdominal aorta using polyethylene syringe (needle: 22 or 26 G). The blood freshly drawn from animal was preincubated with 5 μL Of test compound (concentration 10 μM) at 37° C. Five minutes later, 2.5 μL of 6 mM of Ca ionophore A23187 (final concentration of […]) was added into tube, and incubation mixture was further incubated for 15 min. The reaction was terminated by centrifugation of tubes at 12,000 rpm for 2 min. TXB2 content in the supernatant was determined by EIA as follows.
1 mL of 0.5M glycine-HCl buffer (pH 3.2) was added to 100 μL of sample. The samples were mixed well and centrifuged at 1,700 G for 10 min. at 4° C. The extracted supernatant was applied to a SEP-PAK (registered Trade Mark) C18 cartridge (Waters Assoc.). After washing with 10 mL of distilled water followed by 10 mL each of 15% ethanol and petroleum ether, the sample was eluted with 3 mL of ethyl acetate. The ethyl acetate fraction was evaporated to dryness under gentle N2 stream and the residue was dissolved in EIA buffer (final volume of 1 mL) following the addition of […] of 0.01M NaHCO3-NaOH buffer (pH 10.0). EIA for TXB2 was carried out according to a legend attached to the kit (Chyman Chemical Co., inc.) and calculated inhibition percent. Overall recovery of TXB2 in this extraction procedure was 90%..

Row | SMILES | IC50 (cGMP-PDE) [µM] | inhibition at 10 µM (TXA2 synthetase) [%]
1 | COCCNc1nc(-n2ccnc2)ncc1Cc1ccc(OC)cc1 [1(i), 2-(1-Imidazolyl)-5-(4-methoxyphenyl)methyl-4-(2-methoxyethyl)aminopyrimidine] | 3.5 | –
2 | COc1ccc(Cc2cnc(-n3ccnc3)nc2NCCOCCO)cc1 [1(h), 2-(1-Imidazolyl)-5-(4-methoxyphenyl)methyl-4-[2-(2-hydroxyethoxy)ethyl]aminopyrimidine] | 0.7 | 99
3 | c1ccc(CNc2nc(-n3ccnc3)ncc2Cn2ccnc2)cc1 [1(l), 2-(1-Imidazolyl)-5-(1-imidazolyl)methyl-4-phenylmethylaminopyrimidine] | 35 | 63
4 | Cc1nc(-n2ccnc2)nc(NCc2ccccc2)c1C [1(f), 2-(1-Imidazolyl)-5,6-dimethyl-4-phenylmethylaminopyrimidine] | 3.65 | –
5 | c1ccc(CNc2nc(-n3ccnc3)ncc2Cc2ccccc2)cc1 [1(d), 2-(1-Imidazolyl)-5-phenylmethyl-4-phenylmethylaminopyrimidine] | 1 | –
6 | c1ccc(-c2cnc(-n3ccnc3)nc2NCc2ccc3c(c2)OCO3)cc1 [1(bb)] | 0.014 | 90
7 | c1ccc(CNc2nc(-n3ccnc3)ncc2COc2ccccc2)cc1 [1(k), 2-(1-Imidazolyl)-5-phenoxymethyl-4-phenylmethylaminopyrimidine dihydrochloride] | 0.76 | –
8 | COCCNc1nc(-n2ccnc2)ncc1Cc1cccc(OC)c1 [1(g), 2-(1-Imidazolyl)-5-(3-methoxyphenyl)methyl-4-(2-methoxyethyl)aminopyrimidine] | 3.8 | –
9 | c1ccc(CNc2ccnc(-n3ccnc3)n2)cc1 [1(a), 2-(1-Imidazolyl)-4-phenylmethylaminopyrimidine] | 38 | –
10 | COc1ccc(Cc2cnc(-n3ccnc3)nc2NCc2ccccc2)cc1 [1(j), 2-(1-Imidazolyl)-5-(4-methoxyphenyl)methyl-4-phenylmethylaminopyrimidine] | 0.78 | 94
11 | Cc1cnc(-n2ccnc2)nc1NCc1ccccc1 [1(e), 2-(1-Imidazolyl)-5-methyl-4-phenylmethylaminopyrimidine] | 18 | –
12 | CCc1cnc(-n2ccnc2)nc1NCc1ccccc1 [1(c), 2-(1-Imidazolyl)-5-ethyl-4-phenylmethylaminopyrimidine] | 2.5 | –

Further lines, results first:

Row | IC50 (cGMP-PDE) [µM] | inhibition at 10 µM (TXA2 synthetase) [%] | SMILES
13 | 1 | 96 | c1coc(CNc2nc(-n3ccnc3)ncc2-c2cccs2)c1 [1(u), 2-(1-Imidazolyl)-5-(2-thienyl)-4-(2-furyl)methylaminopyrimidine hydrochloride]
14 | 0.35 | – | c1csc(-c2cnc(-n3ccnc3)nc2NCc2cccc3ccccc23)c1 [1(r), 2-(1-Imidazolyl)-5-(2-thienyl)-4-(1-naphthyl)methylaminopyrimidine]
15 | 2.7 | 89 | c1ccc(CONc2nc(-n3ccnc3)ncc2-c2cccs2)cc1 [1(y), 2-(1-Imidazolyl)-5-(2-thienyl)-4-phenylmethoxyaminopyrimidine hydrochloride]
16 | 1.25 | – | C=C(Cl)c1cnc(-n2ccnc2)nc1NCc1ccccc1 [1(m), 2-(1-Imidazolyl)-5-(1-chlorovinyl)-4-phenylmethylaminopyrimidine hydrochloride]
17 | 0.31 | 100 | c1csc(CNc2nc(-n3ccnc3)ncc2-c2cccs2)c1 [1(v), 2-(1-Imidazolyl)-5-(2-thienyl)-4-(2-thienyl)methylaminopyrimidine hydrochloride]
18 | – | 90 | c1ccc(CNc2nc(-n3ccnc3)ncc2-c2cccs2)cc1 [1(n), 2-(1-Imidazolyl)-5-(2-thienyl)-4-phenylmethylaminopyrimidine hydrochloride]
19 | 12.5 | 100 | OCCOCCNc1nc(-n2ccnc2)ncc1-c1cccs1 [1(q), 2-(1-Imidazolyl)-5-(2-thienyl)-4-[2-(2-hydroxyethoxy)ethyl]aminopyrimidine hydrochloride]
20 | 6 | 87 | COCCNc1nc(-n2ccnc2)ncc1-c1cccs1 [1(x), 2-(1-Imidazolyl)-5-(2-thienyl)-4-(2-methoxyethyl)aminopyrimidine hydrochloride]
21 | – | 75 | c1cncc(-c2ncc(-c3cccs3)c(NCc3ccc4c(c3)OCO4)n2)c1 [Example 2, 2-(3-Pyridyl)-5-(2-thienyl)-4-(1,3-dioxaindan-5-yl)methylaminopyrimidine hydrochloride]
22 | 0.23 | 100 | COc1cccc(CNc2nc(-n3ccnc3)ncc2-c2cccs2)c1 [1(t), 2-(1-Imidazolyl)-5-(2-thienyl)-4-(3-methoxyphenyl)methylaminopyrimidine hydrochloride]
23 | 0.061 | – | Clc1ccc(CNc2nc(-n3ccnc3)ncc2-c2cccs2)cc1 [1(z), 2-(1-Imidazolyl)-5-(2-thienyl)-4-(4-chlorophenyl)methylaminopyrimidine hydrochloride]
24 | 2 | 83 | c1cncc(CNc2nc(-n3ccnc3)ncc2-c2cccs2)c1 [1(w), 2-(1-Imidazolyl)-5-(2-thienyl)-4-(3-pyridyl)methylaminopyrimidine dihydrochloride]
25 | 21 | – | COc1cccc(Cc2cnc(-n3ccnc3)nc2NCCOCCO)c1 [Example 1, 2-(1-Imidazolyl)-4-[2-(2-hydroxyethoxy)ethyl]amino-5-(3-methoxyphenyl)methylpyrimidine]
26 | 0.025 | 90 | c1csc(-c2cnc(-n3ccnc3)nc2NCc2ccc3c(c2)OCO3)c1 [1(p), 2-(1-Imidazolyl)-5-(2-thienyl)-4-(1,3-dioxaindan-5-yl)methylaminopyrimidine hydrochloride]
27 | 0.12 | 65 | c1ccc(CNc2nc(-n3ccnc3)ncc2-c2nccs2)cc1 [1(o), 2-(1-Imidazolyl)-5-(2-thiazolyl)-4-phenylmethylaminopyrimidine hydrochloride]

Source: patent US5525604A, “4-aminopyrimidine derivatives” (Ono Pharmaceutical Co., Ltd., priority 1994, dated 1996)
